The source of these data is patent US20100292231A1, “Indazole Compounds for Treating Inflammatory Disorders, Demyelinating Disorders and Cancers” (priority 2007, published 2010).

The EC50 is the concentration that produces a half-maximal response.

Holding throughout (assay): SelectScreen kinase specificity survey
Holding throughout (format): biochemical

One experiment addresses T1, IKBKB (IKK beta) (Homo sapiens, UniProt O14920).
T1 construct: purchased Invitrogen, Inc. (SelectScreen service)
Conditions: estimated, abridged dose response curve, read-out: Kinase inhibitory activity EC50. Here is the method:
(§1) Testing of the compounds described in this invention was carried out using the SelectScreen™ platform from Invitrogen, Inc. (Carlsbad. Calif., USA) and the details of its performance are readily viewed via the web by linking to: http://www.invitrogen.com/downloads/SelectScrn_Brochure.pdf.
(§2) Briefly, the approach is based on treating each specific kinase with a unique substrate and optical reporter system in the presence of ATP at 100 micromolar. In controls, the substrate is phosphorylated and a baseline optimal response is recorded.
(§3) The compounds were then re-tested by adding graded amounts of putative inhibitor which were added in 5 separate increments to generate a dose response curve. The latter is obtained by fitting to a 4 parameter Hill equation, a sigmoid saturation equation.
(§4) The same assay system described in Example 2 can be applied in the determination of kinase specificity. It is well understood by medicinal chemists in the development of kinase inhibitors that the resulting molecules often lack specificity. Not only are homologous kinases inhibited by the same class of compounds, but also non-homologous kinases can be affected by allosteric, induced, activated vs inactivated conformation, and protein folding interactions with the putative inhibitor, which otherwise had been designed to be specific. These off target effects are difficult to predict and can only be ruled in or out by empirically surveying a large set of kinases. It is also understood that changes to scaffolds and variation in their chemical decorations may influence the extent of promiscuity in the patterns of kinase inhibition across kinase classes.
(§5) The following experiment was conducted to address this issue. The indazole compound (IV), described in Example 2 and representative of the new genus was tested along with Symadex against a panel of 230 kinases representative of all known kinases classes. Included in the survey were the Flt3, its mutant, and close relatives in the Class III receptor tyrosine kinase class, together with serine-threonine kinases and atypical kinases many of which share no homology of active site with Flt3 as shown, for example, in the respective “genecard” for each kinase and available for inspection at on the web at http://www.genecards.org/.
(§6) Table 3 lists the estimated EC50 values from an abridged dose response curve for Symadex (C-1311) and CF-123. The kinases are listed alphabetically by Group and Family.

The target of a further experiment is T2, MARK2 (Homo sapiens, UniProt Q7KZI7).
T2 construct: purchased Invitrogen, Inc. (SelectScreen platform)
Conditions: estimated, abridged dose response curve, read-out: Kinase inhibitory activity EC50. Here is the method:
as §1, §2, §3, §4, §5, §6

Another experiment deals with T3, MAP3K9 (MLK1) (Homo sapiens, UniProt P80192).
T3 construct: purchased Invitrogen, Inc. (SelectScreen platform)
Conditions: estimated, abridged dose response curve, read-out: Kinase inhibitory activity EC50. As for the experimental part:
as §1, §2, §3, §4, §5, §6

Another experiment addresses T4, GRK6 (Homo sapiens, UniProt P43250).
T4 construct: purchased Invitrogen (SelectScreen platform)
As for the experimental part: as §1, §2, §3, §4, §5, §6

A further experiment deals with T5, FES (FPS) (Homo sapiens, UniProt P07332).
T5 construct: purchased Invitrogen (SelectScreen service)
Conditions: estimated, abridged dose response curve, read-out: Kinase inhibitory activity EC50. Here is the method: as §1, §2, §3, §4, §5, §6

In the next experiment the target is T6, ABL2 (Arg) (Homo sapiens, UniProt P42684).
T6 construct: purchased Invitrogen (SelectScreen platform)
The following applies: estimated, abridged dose response curve, read-out: Kinase inhibitory activity EC50. As for the experimental part:
as §1, §2, §3, §4, §5, §6

For another experiment, the target named is T7, STK3 (MST2) (Homo sapiens, UniProt Q13188).
T7 construct: purchased Invitrogen (SelectScreen platform)
The following applies: estimated, abridged dose response curve, read-out: Kinase inhibitory activity EC50. Here is the method:
as §1, §2, §3, §4, §5, §6

The target of another experiment is T8, CAMK2D (CaMKII delta) (Homo sapiens, UniProt Q13557).
T8 construct: purchased Invitrogen, Inc. (SelectScreen platform)
The following applies: estimated, abridged dose response curve, read-out: Kinase inhibitory activity EC50. As for the experimental part:
as §1, §2, §3, §4, §5, §6

In the next experiment the target is T9, FLT1 (VEGFR1) (Homo sapiens, UniProt P17948).
T9 construct: purchased Invitrogen, Inc. (SelectScreen platform)
Conditions: estimated, abridged dose response curve, read-out: Kinase inhibitory activity EC50. Here is the method:
as §1, §2, §3, §4, §5, §6

The next experiment has as its target T10, CHEK2 (CHK2) (Homo sapiens, UniProt O96017).
T10 construct: purchased Invitrogen, Inc. (SelectScreen platform)
Conditions: estimated, abridged dose response curve, read-out: Kinase inhibitory activity EC50. Here is the method:
as §1, §2, §3, §4, §5, §6

The target of another experiment is T11, EEF2K (Homo sapiens, UniProt O00418).
T11 construct: purchased Invitrogen, Inc. (SelectScreen platform)
The following applies: estimated, abridged dose response curve, read-out: Kinase inhibitory activity EC50. Here is the method: as §1, §2, §3, §4, §5, §6

Another experiment addresses T12, NTRK1 (TRKA) (Homo sapiens, UniProt P04629).
T12 construct: purchased Invitrogen (SelectScreen)
As for the experimental part: as §1, §2, §3, §4, §5, §6

The next experiment addresses T13, MAPK10 (JNK3) (Homo sapiens, UniProt P53779).
T13 construct: purchased Invitrogen (SelectScreen platform)
The following applies: estimated, abridged dose response curve, read-out: Kinase inhibitory activity EC50. As for the experimental part: as §1, §2, §3, §4, §5, §6

The next experiment has as its target T14, BRAF (Homo sapiens, UniProt P15056).
T14 construct: purchased Invitrogen, Inc. (SelectScreen platform)
The following applies: estimated, abridged dose response curve, read-out: Kinase inhibitory activity EC50. Here is the method: as §1, §2, §3, §4, §5, §6

For a further experiment, the target named is T15, EPHA1 (Homo sapiens, UniProt P21709).
T15 construct: purchased Invitrogen (SelectScreen service)
Conditions: estimated, abridged dose response curve, read-out: Kinase inhibitory activity EC50. Here is the method:
as §1, §2, §3, §4, §5, §6

In another experiment the target is T16, RPS6KA5 (MSK1) (Homo sapiens, UniProt O75582).
T16 construct: purchased Invitrogen, Inc. (SelectScreen platform)
The following applies: estimated, abridged dose response curve, read-out: Kinase inhibitory activity EC50. Here is the method:
as §1, §2, §3, §4, §5, §6

For the next experiment, the target named is T17, STK25 (YSK1) (Homo sapiens, UniProt O00506).
T17 construct: purchased Invitrogen (SelectScreen platform)
Conditions: estimated, abridged dose response curve, read-out: Kinase inhibitory activity EC50. As for the experimental part:
as §1, §2, §3, §4, §5, §6

Read-outs that look alike come from different tables or passages of the source.

T7 sequence (Q13188 whole entry): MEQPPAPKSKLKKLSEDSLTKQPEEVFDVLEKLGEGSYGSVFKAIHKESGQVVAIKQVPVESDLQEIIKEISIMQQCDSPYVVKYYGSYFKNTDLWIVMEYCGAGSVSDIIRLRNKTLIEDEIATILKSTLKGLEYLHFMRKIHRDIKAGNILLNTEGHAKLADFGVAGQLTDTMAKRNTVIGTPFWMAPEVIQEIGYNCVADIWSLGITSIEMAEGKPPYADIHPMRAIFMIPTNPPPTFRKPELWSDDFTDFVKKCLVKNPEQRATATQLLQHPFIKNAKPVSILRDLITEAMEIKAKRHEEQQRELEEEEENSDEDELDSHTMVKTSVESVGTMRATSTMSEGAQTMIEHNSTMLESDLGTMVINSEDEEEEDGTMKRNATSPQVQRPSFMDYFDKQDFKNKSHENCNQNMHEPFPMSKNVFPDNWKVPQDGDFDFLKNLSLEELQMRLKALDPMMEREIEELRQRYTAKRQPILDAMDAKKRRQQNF
T10 sequence (O96017 whole entry): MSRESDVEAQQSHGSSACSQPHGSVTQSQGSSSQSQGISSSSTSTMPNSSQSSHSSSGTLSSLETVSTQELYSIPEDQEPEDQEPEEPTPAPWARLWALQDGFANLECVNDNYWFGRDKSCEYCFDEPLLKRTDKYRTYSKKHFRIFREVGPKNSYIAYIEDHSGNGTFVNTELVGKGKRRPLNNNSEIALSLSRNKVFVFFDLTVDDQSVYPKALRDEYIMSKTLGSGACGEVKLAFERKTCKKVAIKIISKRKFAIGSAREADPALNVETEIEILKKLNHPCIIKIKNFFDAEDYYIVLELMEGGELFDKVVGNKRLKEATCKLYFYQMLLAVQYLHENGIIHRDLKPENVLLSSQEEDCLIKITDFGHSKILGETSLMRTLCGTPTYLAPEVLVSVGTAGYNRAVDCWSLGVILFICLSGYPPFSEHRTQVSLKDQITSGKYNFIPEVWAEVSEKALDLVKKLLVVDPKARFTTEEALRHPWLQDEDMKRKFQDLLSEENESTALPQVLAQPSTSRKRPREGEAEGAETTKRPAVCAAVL
T3 sequence (P80192 whole entry): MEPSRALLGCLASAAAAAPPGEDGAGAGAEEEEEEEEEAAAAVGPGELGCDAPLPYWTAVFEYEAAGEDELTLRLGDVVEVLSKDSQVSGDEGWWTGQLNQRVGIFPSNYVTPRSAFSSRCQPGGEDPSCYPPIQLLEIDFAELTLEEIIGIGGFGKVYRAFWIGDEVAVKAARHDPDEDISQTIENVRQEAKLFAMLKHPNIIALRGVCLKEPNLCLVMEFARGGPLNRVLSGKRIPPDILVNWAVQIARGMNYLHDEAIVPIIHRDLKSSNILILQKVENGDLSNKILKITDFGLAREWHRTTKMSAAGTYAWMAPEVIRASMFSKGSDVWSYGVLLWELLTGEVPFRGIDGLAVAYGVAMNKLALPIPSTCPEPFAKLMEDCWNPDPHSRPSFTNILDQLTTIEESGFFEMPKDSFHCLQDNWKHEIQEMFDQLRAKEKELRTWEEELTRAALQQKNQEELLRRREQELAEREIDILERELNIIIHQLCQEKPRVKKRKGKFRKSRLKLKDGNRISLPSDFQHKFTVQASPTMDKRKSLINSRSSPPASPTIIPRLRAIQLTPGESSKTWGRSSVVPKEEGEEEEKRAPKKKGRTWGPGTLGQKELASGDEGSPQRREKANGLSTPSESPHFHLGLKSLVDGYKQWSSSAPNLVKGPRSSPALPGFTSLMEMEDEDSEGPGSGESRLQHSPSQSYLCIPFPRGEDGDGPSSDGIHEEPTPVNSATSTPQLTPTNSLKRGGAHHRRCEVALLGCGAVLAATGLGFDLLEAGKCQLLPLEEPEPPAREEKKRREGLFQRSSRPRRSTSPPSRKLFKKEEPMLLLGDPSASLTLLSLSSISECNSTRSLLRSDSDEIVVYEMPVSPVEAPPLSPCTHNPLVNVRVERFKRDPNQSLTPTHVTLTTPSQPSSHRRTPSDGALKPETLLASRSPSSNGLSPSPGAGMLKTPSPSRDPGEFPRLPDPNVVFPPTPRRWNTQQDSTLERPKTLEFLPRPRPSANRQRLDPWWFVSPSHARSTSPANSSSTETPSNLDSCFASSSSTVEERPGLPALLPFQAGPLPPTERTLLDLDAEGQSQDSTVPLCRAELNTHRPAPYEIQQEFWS
T2 sequence (Q7KZI7 whole entry): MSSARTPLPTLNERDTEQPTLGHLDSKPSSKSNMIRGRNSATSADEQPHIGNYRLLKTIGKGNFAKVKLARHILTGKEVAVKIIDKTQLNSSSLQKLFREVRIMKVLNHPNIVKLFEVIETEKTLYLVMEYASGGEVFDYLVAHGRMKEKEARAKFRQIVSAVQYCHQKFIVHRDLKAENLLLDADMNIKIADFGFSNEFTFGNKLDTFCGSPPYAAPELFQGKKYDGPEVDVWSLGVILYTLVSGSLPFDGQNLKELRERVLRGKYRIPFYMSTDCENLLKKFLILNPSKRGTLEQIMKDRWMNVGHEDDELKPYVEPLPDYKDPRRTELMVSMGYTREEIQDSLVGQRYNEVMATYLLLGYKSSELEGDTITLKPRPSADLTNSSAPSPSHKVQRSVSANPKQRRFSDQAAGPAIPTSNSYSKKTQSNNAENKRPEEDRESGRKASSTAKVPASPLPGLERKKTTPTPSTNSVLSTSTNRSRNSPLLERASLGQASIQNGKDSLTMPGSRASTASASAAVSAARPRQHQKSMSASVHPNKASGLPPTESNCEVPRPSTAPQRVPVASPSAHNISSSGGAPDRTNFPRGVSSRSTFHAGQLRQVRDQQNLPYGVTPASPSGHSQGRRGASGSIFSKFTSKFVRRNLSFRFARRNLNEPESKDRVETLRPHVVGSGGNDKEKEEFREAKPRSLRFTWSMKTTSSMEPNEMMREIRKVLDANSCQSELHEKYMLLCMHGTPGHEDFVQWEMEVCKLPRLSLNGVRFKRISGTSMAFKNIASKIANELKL
T15 sequence (P21709 26-976): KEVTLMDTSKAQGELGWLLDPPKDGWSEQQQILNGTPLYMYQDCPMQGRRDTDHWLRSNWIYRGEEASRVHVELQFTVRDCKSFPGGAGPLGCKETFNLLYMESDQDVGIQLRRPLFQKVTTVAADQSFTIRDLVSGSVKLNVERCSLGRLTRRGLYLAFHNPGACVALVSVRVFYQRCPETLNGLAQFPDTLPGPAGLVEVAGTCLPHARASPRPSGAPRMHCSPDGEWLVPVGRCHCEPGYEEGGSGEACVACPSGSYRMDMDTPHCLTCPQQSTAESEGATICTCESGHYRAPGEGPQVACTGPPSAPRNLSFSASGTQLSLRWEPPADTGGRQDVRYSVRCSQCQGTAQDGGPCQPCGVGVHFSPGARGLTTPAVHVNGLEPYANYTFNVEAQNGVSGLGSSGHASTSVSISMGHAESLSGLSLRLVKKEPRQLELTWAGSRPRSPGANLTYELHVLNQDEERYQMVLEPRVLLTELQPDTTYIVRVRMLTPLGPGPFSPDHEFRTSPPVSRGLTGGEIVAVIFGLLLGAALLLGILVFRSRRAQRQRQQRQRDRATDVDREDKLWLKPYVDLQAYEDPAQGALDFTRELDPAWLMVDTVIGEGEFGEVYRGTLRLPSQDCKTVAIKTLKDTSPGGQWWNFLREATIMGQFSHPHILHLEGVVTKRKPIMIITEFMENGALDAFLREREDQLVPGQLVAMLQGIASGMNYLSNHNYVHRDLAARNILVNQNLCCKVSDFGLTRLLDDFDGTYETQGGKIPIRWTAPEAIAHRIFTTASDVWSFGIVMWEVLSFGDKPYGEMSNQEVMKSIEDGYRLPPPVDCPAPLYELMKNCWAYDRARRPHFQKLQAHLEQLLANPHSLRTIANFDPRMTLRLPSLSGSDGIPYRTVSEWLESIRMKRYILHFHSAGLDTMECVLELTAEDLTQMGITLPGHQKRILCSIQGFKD
T12 sequence (P04629 33-796): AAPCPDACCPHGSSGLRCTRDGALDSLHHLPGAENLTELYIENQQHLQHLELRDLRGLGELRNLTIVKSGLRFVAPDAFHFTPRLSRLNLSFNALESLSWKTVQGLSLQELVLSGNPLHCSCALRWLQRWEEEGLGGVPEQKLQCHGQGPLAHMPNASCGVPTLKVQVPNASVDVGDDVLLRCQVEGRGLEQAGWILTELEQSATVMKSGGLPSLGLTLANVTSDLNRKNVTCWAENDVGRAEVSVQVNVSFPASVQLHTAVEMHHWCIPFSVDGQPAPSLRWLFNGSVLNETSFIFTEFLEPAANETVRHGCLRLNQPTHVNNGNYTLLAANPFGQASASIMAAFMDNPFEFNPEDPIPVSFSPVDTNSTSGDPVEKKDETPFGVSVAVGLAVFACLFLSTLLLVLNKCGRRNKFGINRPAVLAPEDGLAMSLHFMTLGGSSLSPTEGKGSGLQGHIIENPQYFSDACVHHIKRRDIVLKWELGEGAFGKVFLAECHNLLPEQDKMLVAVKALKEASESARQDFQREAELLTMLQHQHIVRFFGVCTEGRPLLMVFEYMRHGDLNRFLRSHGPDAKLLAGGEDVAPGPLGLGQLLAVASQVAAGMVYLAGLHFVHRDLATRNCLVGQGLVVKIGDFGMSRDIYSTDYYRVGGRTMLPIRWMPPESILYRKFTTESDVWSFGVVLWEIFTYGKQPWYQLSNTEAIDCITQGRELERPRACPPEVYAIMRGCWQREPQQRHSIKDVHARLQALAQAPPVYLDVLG
T17 sequence (O00506 whole entry): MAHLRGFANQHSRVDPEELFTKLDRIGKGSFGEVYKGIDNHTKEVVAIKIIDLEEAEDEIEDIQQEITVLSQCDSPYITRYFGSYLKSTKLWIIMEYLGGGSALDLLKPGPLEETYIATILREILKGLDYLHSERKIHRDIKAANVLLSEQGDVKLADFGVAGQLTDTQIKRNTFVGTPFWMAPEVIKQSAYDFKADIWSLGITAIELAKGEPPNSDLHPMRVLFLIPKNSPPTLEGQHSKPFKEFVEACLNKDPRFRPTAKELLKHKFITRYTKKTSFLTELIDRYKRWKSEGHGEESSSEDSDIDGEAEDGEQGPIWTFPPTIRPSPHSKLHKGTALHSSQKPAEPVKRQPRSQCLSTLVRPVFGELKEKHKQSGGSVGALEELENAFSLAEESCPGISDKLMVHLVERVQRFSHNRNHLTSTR

Take `CN(C)CCCNc1ccc2ncn3c4ccc5[nH]ncc5c4c(=O)c1c23` [Compound (IV)]: the EC50 at IKBKB (IKK beta) was 2.8 µM; at MARK2, 3.49 µM; on MAP3K9 (MLK1) it was over 5 µM; on GRK6 (GRK6, estimated, abridged dose response curve, read-out: Kinase inhibitory activity EC50) it was over 5 µM; at FES (FPS) it was 2.25 µM; at ABL2 (Arg), 2.87 µM. Besides, the EC50 at STK3 (MST2) is over 5 µM; on CAMK2D (CaMKII delta) it was 0.218 µM; at FLT1 (VEGFR1), over 5 µM; at CHEK2 (CHK2), over 5 µM; at EEF2K, over 5 µM; on NTRK1 (TRKA) (NTRK1 (TRKA), estimated, abridged dose response curve, read-out: Kinase inhibitory activity EC50), 0.438 µM. Moreover, the EC50 at MAPK10 (JNK3) was 2.81 µM; at BRAF, 1.44 µM; at EPHA1, over 5 µM; at RPS6KA5 (MSK1) it was over 5 µM; at STK25 (YSK1), over 5 µM.

As for `CCN(CC)CCNc1ccc2ncn3c4ccc(O)cc4c(=O)c1c23` [Symadex, 5-(2-(diethylamino)ethylamino)-8-hydroxy-6H-imidazo[4,5,1-de]acridin-6-one, reference compound], the concentration giving a half-maximal response (EC50) is over 5 µM on IKBKB (IKK beta); 2.02 µM at MARK2; over 5 µM on MAP3K9 (MLK1); over 5 µM on GRK6; 1.05 µM on FES (FPS); 3.21 µM at ABL2 (Arg). Besides, the EC50 on STK3 (MST2) was over 5 µM; at CAMK2D (CaMKII delta), 2.06 µM; at FLT1 (VEGFR1), over 5 µM; at CHEK2 (CHK2), over 5 µM; on EEF2K it was over 5 µM; at NTRK1 (TRKA), 1.43 µM. The EC50 was over 5 µM on MAPK10 (JNK3); 4.45 µM on BRAF; over 5 µM at EPHA1; over 5 µM at RPS6KA5 (MSK1); over 5 µM on STK25 (YSK1).
